One assay has as its system RPMI 2650 cells. The experiment in a line: TSLP secretion in nasal RPMI 2650 cell culture supernatants (ELISA). In kind it is cell-based, human. On the procedure:
Nasal RPMI 2650 cells (isolated from the human nasal septum, squamous cell carcinoma, ATCC) were grown in MEMα (Minimum Essential Medium α, Thermo Fisher) supplemented with 10% fetal calf serum (FCS, Eurobio, Courtaboeuf, France) and 1% penicillin/streptomycin.
(§1) TSLP, IL-25/IL-17E, IL-33, IFN-γ, IL-10, IL-12/23p40, IL-4, IL-5, IL-6, IL-13, TNF-α, MMP-9, IL-8/CXCL8, […], MDC/CCL22, TARC/CCL17, APRIL and BAFF were measured in culture supernatants from indicated experiments with custom multiplex Luminex assays (Bio-techne) according to the manufacturer's instructions. Additionally, when indicated TSLP was measured in culture supernatants by enzyme-linked immunosorbent assay (ELISA) with a limit of detection of 8 pg/ml (Thermo Fisher) according to the manufacturer's instructions.
We first investigate whether P1 induced TSLP secretion in nasal epithelium. Therefore, we cultured human nasal epithelial cells (RPMI 2650) with P1 Glade B for 2-24 hours at 37° C. and analyzed the culture supernatants for TSLP secretion.
(ELISA stands for enzyme-linked immunosorbent assay.)

Assay [1] concerns nasal RPMI cells. The experiment in a line: Calcium measurement (Fura-2/AM), nasal RPMI cells. In kind it is cell-based, human. The settings on record: P1 125 μM vs 2511M, controls at 125 μM, n=3. On the procedure:
(§2) 70-80% confluent RPMI 2650 or HNEC cells in 24-well plate were loaded with […] Fura-2/AM (Molecular Probes) in basal medium without serum/growth factors for 1 hour at 37° C. Cells were washed twice with mammalian saline (Conche, Boulla et al. 2009) and measurements were performed in complete medium supplied with HEPS (10 mM) and CaCl2 (2 mM) as described add (Conche, Boulla et al. 2009). Images were acquired with an inverted fluorescence microscope (Observer Z1, Zeiss, Germany) and analyzed with MetaMorph software (Guichard, Bonilla et al. 2017) Calcium was measured every 5 seconds by video fluorescence imaging. Results were expressed as 340 nm to 380 nm fluorescence ratio and normalized to the baseline, i.e. ratio at time zero was set as 1.

A further assay relates to primary HNEC cells. The experiment in a line: Calcium measurement (Fura-2/AM), primary HNEC cells. The conditions noted are these: P1 125 μM vs 2511M, controls at 125 μM, n=3. Type of assay: cell-based, human. On the procedure:
as §2

Assay [2] has as its system nasal RPMI cells. The experiment in a line: Cytokines and chemokines quantification (Luminex), nasal RPMI cells. The settings on record: 125 μM, 24 hrs. Type of assay: cell-based, human. On the procedure: as §1
We next investigated whether, in addition to TSLP, P1 could stimulate epithelial secretion of additional immune factors prone to attract antigen presenting cells (APCs). […] Together with TSLP (Zhou, Xu et al. 2018), this set of immune factors could facilitate recruitment of APCs to the mucosal surface for initiation of an immune response, since CCL20 and CCL2 chemo-attract macrophages and immature dendritic cells (DCs), and MMP-9 degrades the extracellular matrix and facilitates the migration of immune cells in or out the epithelium. Treg cells have IgA-inducing functions and require RA, TGF-b1, IL-10, and TSLP from intestinal epithelial cells and DCs. So, we assumed IL-10 released from either EC or DC may contribute to IgA class switching (Gutzeit, Magri, et al. 2014).

In a further assay the test system is autologous CD4+ T cells. The experiment in a line: DC-T co-cultures, CD4+ T cell proliferation (CFSE). In kind it is cell-based, human. The conditions noted are these: peptide-primed eduDCs, 125 μM, 5 days, DC/T 1:5. On the procedure:
Autologous CD4+ T cells were purified from PMBCs by negative selection according to manufacturer instructions (StemCell Technologies, France) (purity>95%)
DCs and confluent ECs were co-cultured overnight as described above, and DC-EC or eduDC was further incubated with P1 (clade B, 125 μM) or medium for 24 h. Then, DCs were separated and incubated with autologous CD4+ T cells pre-labeled with CFSE (Thermo Fisher) according to the manufacturer's instructions, at a ratio of 1:5 (DC/T). After 5 days of culture, CD4+ T cell proliferation was analyzed by flow cytometry as described (Yeh, Yeh et al. 2013, Qin, Yin et al. 2015) using Phytohaemagglutinin (PHA) (5 μg/mL) as positive control.

The conditions of assay [3]: intranasal immunization, gp140 antigen; Van Roey, Arias et al. 2012; cited from earlier work.
The test system of the next assay is primary HNECs. The experiment in a line: Signaling inhibitors on P1-induced TSLP expression. In kind it is cell-based, human. On the procedure: The expression of short and long form TSLP was quantified as described (Bjerkan, Schreurs et al. 2015, Dong, Hu et al. 2016). Briefly, total RNA was extracted using Trizol. Five hundred nanograms of RNA were treated with ezDNase Enzyme (Thermo Fisher) to remove genomic DNA, and reverse transcribed into cDNA using the kit SuperScript IV VILO Master Mix according to manufacturer instructions (Thermo Fisher). Quantitative PCR was performed using reported primers (Dong, Hu et al. 2016) and the PowerUp SYBR Green Master Mix according to manufacturer instructions (Thermo Fisher). Reactions were performed in triplicates, with glyceraldehyde-3-phosphate dehydrogenase (GAPDH) as the internal control. Amplification, data acquisition, and analysis were carried out using the LightCycler 480 Software (Roche, Mannheim, Germany). The levels of TSLP mRNA were normalized to the levels of GAPDH using the ΔCt method (Schmittgen and Livak 2008) and were presented as 2-ΔCt values.
Signaling inhibitors Confluent HNEC cells in 24-well plate were pre-incubated with inhibitors for 1 h at 37° C. prior to P1 treatment. Inhibitors, namely dexamethasone (Dex) a NF-kB and MAPK inhibitor (used at 100 nM), and Cyclosporin A (CsA) a Calcineurin Inhibitor (used at 1.5 μM), were from Invivogen and used at the manufacturer's recommended concentrations. […]

The test system of assay [4] is CD8-depleted PBMCs cocultured with RPMI 2650 cells. The experiment in a line: In vitro immunization assay with ovalbumin. The settings on record: OVA alone 10 μg/mL, no adjuvant. In kind it is cell-based, human. On the procedure:
In vitro immunization assay was performed as reported (Jung, Matsumoto et al. 2007) with modifications. Briefly, 1×10^6 CD8-depleted PBMCs (Human CD8 Depletion Cocktail, StemCell Technologies, France) were cocultured for 24 hrs with RPMI 2650 cells ([…]) pre-seeded in 48 well plates for 48 hrs. Then, ovalbumin (OVA, EndoFit Ovalbumin, 10 µg/mL, Invivogen) alone, OVA together with P1 (5 μM, 25 μM, 125 μM), OVA together with P1 mutant (P1mut, 125 μM), or medium were added to in RPMI 1640 medium supplemented with Non-Essential Amino Acids (NEAA solution, Thermo Fisher), IL-4 ([…]), IL-2 (10 UI/mL) and 2-mercaptoethanol (20 μM) for 7 days.
For the detection of OVA-specific B cells, at indicated time of culture, PMBCs were surface stained with ovalbumin conjugated to fluorescein (OVA-FITC, 20 ug/mL, Thermo), PE-conjugated mouse anti-human CD20 (BD Biosciences, CA, USA), APC-conjugated goat anti-human IgA or donkey anti-human IgG (Jackson ImmunoResearch, PA, USA) as indicated by the manufacturer. Specific labeling was quantified by flow cytometry with a Guava EasyCyte flow cytometer (Merck-Millipore), and analyzed with the dedicated InCyte software, using the following strategy: CD20+ B cells were first gated and cell double positive for OVA-FITC+ and APC-conjugated anti-IgA or anti-IgG were determined as OVA-IgA or IgG-specific B-cell s.
In vitro immunization assays have been used to produce specific monoclonal antibodies using a defined antigen complemented with an adjuvant (Borrebaeck, Danielsson et al. 1987). Here, we establish a mucosal immunization model adapted from (Jung, Matsumoto et al. 2007, Yeh, Yeh et al. 2013, Wijkhuisen, Savatier et al. 2016) and using mucosal DCs based on our results presented above. OVA was selected as the model antigen. Therefore, human CD8-depleted PBMCs (n=5 independent donors) were cocultured with RPMI 2650 cells for one day to educate DCs, and prior to addition of either medium, OVA, OVA plus P1 mutant (P1mut, 125 μM) or OVA plus P1 (5 μM, 25 μM, 125 μM) for seven more days. OVA-specific B cells were quantified by flow cytometry using FITC-conjugated OVA and anti-CD2O-PE to gate on OVA-specific B cells. The Ig isotype of surface B cell receptor (BCR) was next characterized by APC-conjugated anti-human-IgA or anti-human-IgG. […] Similar results were obtained when B cells were stained with anti-CD19-PE.

As to “SQTQQEKNEQELLALDSWKNLWNWFSITNWLWYIK [P1 Glade C]”, the “Induction of TSLP secretion by P1 variants” value in the assay with RPMI 2650 cells (RPMI nasal cells, 4 hours) was “failed to induce TSLP secretion”. Besides, the “extracellular calcium influx (340/380 nm ratio)” value with nasal RPMI cells [1] and in the assay with primary HNEC cells was “fails to raise the calcium level significantly” throughout. Besides, the “secretion of MMP-9, CCL20, CCL2 and IL-10” value in the assay with nasal RPMI cells [2] is “unable to stimulate significant MMP-9, CCL-20 CCL2 or IL-10 production”. Further, the “proliferation of autologous CD4+ T cells” value in the assay on autologous CD4+ T cells was “has no effect”.

With Thymic stromal lymphopoietin [TSLP], the “humoral response as mucosal adjuvant” value in assay [3] was “induced a strong humoral response both in serum and at genital level”.

On to `CC(C)CC(=O)N1CCN(C(=O)CCCCCN)CC1` [ENMD-1068], for which the “reduction of P1-induced TSLP expression” value in the assay with primary HNECs (1 h pre-treatment before P1, CsA 1.5 μM, ENMD-1068 500 μg/mL, n=3) is given as 46±24%. For the same molecule, the “P1-induced up-regulation of miR-4485-3p” value in the assay with primary HNECs (inhibitor pre-treatment before P1) is recorded as “blocked the up-regulation of miR-4485-3p”.

“SQIQQKKNEQDLLALDKWANLWNWFDISNWLWYIR (Synthetic P1 clade A) [P1 Glade A]”: the “Reduction of TSLP secretion compared to clade B P1” value in the assay with RPMI 2650 cells (125 uM, p<0.05, n=5) worked out at 20%. Besides, the “Secretion of TSLP” value in the assay with RPMI 2650 cells (peptide at 125 uM, 4 hours, n=5) is 41.8 ± 2.6 pg/mL.

B1: ovalbumin (protein, UniProt P01012 2-386, looked up)
Ovalbumin: GSIGAASMEFCFDVFKELKVHHANENIFYCPIAIMSALAMVYLGAKDSTRTQINKVVRFDKLPGFGDSIEAQCGTSVNVHSSLRDILNQITKPNDVYSFSLASRLYAEERYPILPEYLQCVKELYRGGLEPINFQTAADQARELINSWVESQTNGIIRNVLQPSSVDSQTAMVLVNAIVFKGLWEKAFKDEDTQAMPFRVTEQESKPVQMMYQIGLFRVASMASEKMKILELPFASGTMSMLVLLPDEVSGLEQLESIINFEKLTEWTSSNVMEERKIKVYLPRMKMEEKYNLTSVLMAMGITDVFSSSANLSGISSAESLKISQAVHAAHAEINEAGREVVGSAEAGVDAASVSEEFRADHPFLFCIKHIATNAVLFFGRCVSP
notes: model antigen, EndoFit Ovalbumin, Invivogen
On to B1, for which the “induction of OVA-specific B cells” value in assay [4] is on record as “failed to induce OVA-specific specific B cells”.

The record behind these values is patent US20240016924A1, “NEW ADJUVANT TO IMPROVE THE INNATE IMMUNITY” (INSTITUT NATIONAL DE LA SANTÉ ET DE LA RECHERCHE MÉDICALE, priority 2020, published 2024).
